Here are results for twelve compounds from PubChem BioAssay (NCI).

Among the test systems are HOP-92 NSCLC; CAKI-1 renal; UO-31 renal; IGROV1 ovarian; SK-MEL-28 melanoma; M14 melanoma; MOLT-4 leukemia; NCI-H226 lung; SK-MEL-2 melanoma; HT29 colon.
Experiment in all cases: DTP human tumour cell line panel, 48 h

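Growth conditions: 96-well plates. Treatment: test compound, 48 hours, 5 concentrations. Analysis: linear interpolation between bracketing concentrations; unreached endpoints set to highest concentration. Abbreviation: GI50, concentration required for 50% inhibition of growth. At the TGI there is no net growth.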

`COc1cc(-c2nc3ccc(C)cc3[nH]2)ccc1OCC(=O)N=Nc1c(O)[nH]c2ccccc12`: the GI50 is 1560 nM in the assay on HOP-92 NSCLC; 1660 nM in the assay with CAKI-1 renal; 12500 nM with UO-31 renal; 1730 nM in the assay on IGROV1 ovarian; 1770 nM with SK-MEL-28 melanoma; 1840 nM in the assay on M14 melanoma. Moreover, the TGI worked out at 3.28 µM with HOP-92 NSCLC; 3.07 µM with CAKI-1 renal; 96.4 µM with UO-31 renal; 3.48 µM in the assay on IGROV1 ovarian; 3.16 µM in the assay on SK-MEL-28 melanoma; 3.56 µM in the assay on M14 melanoma.
`COC(=O)c1c(-c2ccccc2)cc2c3cc(-c4ccccc4)c(C(=O)OC)n3c3ccccc3n12`: the TGI with MOLT-4 leukemia, in the assay with NCI-H226 lung, in the assay with CAKI-1 renal, with UO-31 renal, with IGROV1 ovarian and in the assay with SK-MEL-28 melanoma was more than 100 µM each time. Moreover, the TGI with SK-MEL-2 melanoma, with HT29 colon and in the assay with M14 melanoma was more than 100 µM in each case.
As to `CC[N+](CCCCCCCCCC[N+](CC)(c1ccccn1)c1ccccn1)(c1ccccn1)c1ccccn1`, the GI50 in the assay on MOLT-4 leukemia was 2280 nM; in the assay on NCI-H226 lung, 2040 nM; in the assay with CAKI-1 renal, 2610 nM; with UO-31 renal, 2090 nM; with IGROV1 ovarian it was 2070 nM; in the assay with SK-MEL-28 melanoma it was 2480 nM. In addition, the GI50 is 1880 nM with SK-MEL-2 melanoma, 764 nM in the assay with HT29 colon and 2570 nM with M14 melanoma. Besides, the TGI amounted to 13.2 µM with MOLT-4 leukemia; 22.3 µM with NCI-H226 lung; 9.92 µM in the assay with CAKI-1 renal; 12.6 µM with UO-31 renal; 11.7 µM with IGROV1 ovarian; 15.2 µM in the assay on SK-MEL-28 melanoma. Also, the TGI was 5.82 µM in the assay on SK-MEL-2 melanoma, 12.1 µM in the assay on HT29 colon and 30.5 µM in the assay with M14 melanoma.
With `Cc1cc2nc3c(C(OC4OC(CO)C(O)C(O)C4O)C(O)CO)nn(-c4ccccc4)c3nc2cc1C` (centres undefined), the TGI with MOLT-4 leukemia, in the assay on UO-31 renal, in the assay on SK-MEL-28 melanoma, with HT29 colon and in the assay on M14 melanoma was more than 100 µM each time.
As to `CC1=C2C(O)C(C(C)CO)C(O)CC2(C)C(O)CC1` (centres undefined), the TGI with HOP-92 NSCLC, in the assay on MOLT-4 leukemia, in the assay with NCI-H226 lung, in the assay with CAKI-1 renal, with UO-31 renal and with IGROV1 ovarian was more than 100 µM throughout. The TGI in the assay on SK-MEL-28 melanoma, in the assay with HT29 colon and in the assay with M14 melanoma was more than 100 µM each time.
With `C=CCNC(=S)N1CC(C)C(=O)Nc2ccccc21` (centres undefined), the TGI with MOLT-4 leukemia, in the assay with NCI-H226 lung, in the assay with UO-31 renal, in the assay on IGROV1 ovarian, in the assay with SK-MEL-28 melanoma and with SK-MEL-2 melanoma was more than 100 µM throughout. Further, the TGI in the assay with HT29 colon and in the assay with M14 melanoma was more than 100 µM throughout.
As for `Oc1ccc(Br)cc1Sc1cc(Br)ccc1O`, the GI50 in the assay with MOLT-4 leukemia is 7370 nM; in the assay with NCI-H226 lung it was 18100 nM; in the assay on CAKI-1 renal it was 18700 nM; in the assay with UO-31 renal, 5000 nM; with IGROV1 ovarian, 15700 nM; in the assay with SK-MEL-28 melanoma it was 4780 nM. Also, the values for the GI50 in the assay with SK-MEL-2 melanoma, in the assay with HT29 colon and in the assay with M14 melanoma were 5620 nM, 19000 nM and 10700 nM, respectively. Further, the TGI came to 38.4 µM in the assay with MOLT-4 leukemia; 41.9 µM in the assay on NCI-H226 lung; 45.5 µM in the assay on CAKI-1 renal; 19.6 µM with UO-31 renal; 36.3 µM in the assay on IGROV1 ovarian; 16.6 µM in the assay with SK-MEL-28 melanoma. Besides, the values for the TGI with SK-MEL-2 melanoma, with HT29 colon and with M14 melanoma were 17.7 µM, 34.1 µM and 27.9 µM, respectively.
Regarding `O=c1cc(-c2ccccc2)[nH]c2cccc(S)c12`, the TGI with HOP-92 NSCLC is more than 100 µM; with MOLT-4 leukemia it was more than 100 µM; with NCI-H226 lung, 98.7 µM; with IGROV1 ovarian, more than 100 µM; in the assay with SK-MEL-28 melanoma, more than 100 µM; in the assay on M14 melanoma, more than 100 µM.
Consider `CCN(CC)CCCCC1CCN(CC(=O)N2CC(C)C(=O)Nc3ccccc32)CC1` (centres undefined), for which the TGI in the assay with HOP-92 NSCLC, in the assay with MOLT-4 leukemia, in the assay on NCI-H226 lung, in the assay with CAKI-1 renal, in the assay on UO-31 renal and in the assay with IGROV1 ovarian was more than 100 µM throughout. Further, the TGI in the assay with SK-MEL-28 melanoma, in the assay on HT29 colon and in the assay with M14 melanoma was more than 100 µM each time.
In the case of `C=CCn1c(C)nc2cc(Nc3nc(Nc4ccc5nc(C)n(CC=C)c5c4)c4ccccc4n3)ccc21`, the GI50 in the assay on HOP-92 NSCLC is 780 nM; with MOLT-4 leukemia it was 229 nM; with NCI-H226 lung, 2020 nM; with CAKI-1 renal it was 1610 nM; with UO-31 renal it was 1400 nM; in the assay with SK-MEL-28 melanoma, 1410 nM. Moreover, the GI50 with HT29 colon is 190 nM. Also, the TGI came out at 2.08 µM in the assay with HOP-92 NSCLC; 0.629 µM in the assay on MOLT-4 leukemia; 4.77 µM with NCI-H226 lung; 3.03 µM with CAKI-1 renal; 2.74 µM in the assay on UO-31 renal; 3.16 µM in the assay on SK-MEL-28 melanoma. Further, in the assay with HT29 colon, the TGI turned out to be 0.348 µM.
Turning to `COc1cc([C@H](C)c2ccc3ccccc3c2)cc(OC)c1OC`, the GI50 in the assay with HOP-92 NSCLC is 908 nM; in the assay on MOLT-4 leukemia it was 504 nM; in the assay with NCI-H226 lung, 2940 nM; in the assay with UO-31 renal it was 665 nM; with IGROV1 ovarian, 804 nM; in the assay with SK-MEL-28 melanoma it was 5250 nM. The GI50 in the assay on SK-MEL-2 melanoma is 527 nM; in the assay on HT29 colon, 294 nM; in the assay with M14 melanoma, 197 nM. Also, the TGI in the assay on HOP-92 NSCLC was 53 µM; in the assay with MOLT-4 leukemia, more than 100 µM; in the assay on NCI-H226 lung it was more than 100 µM; with UO-31 renal, more than 100 µM; in the assay with IGROV1 ovarian, more than 100 µM; in the assay with SK-MEL-28 melanoma it was more than 100 µM. Further, the TGI with SK-MEL-2 melanoma is 65.4 µM; in the assay with HT29 colon it was more than 100 µM; with M14 melanoma, more than 100 µM.
For the compound `COC(=O)CCC/C=C\C[C@H]1C=CC(=O)/C1=C/C[C@@H](O)CCc1cccc(C(F)(F)F)c1`, the GI50 in the assay with HOP-92 NSCLC was 3100 nM; in the assay on MOLT-4 leukemia, 2290 nM; in the assay with CAKI-1 renal, 3890 nM; with UO-31 renal it was 1730 nM; in the assay on IGROV1 ovarian, 3710 nM; with SK-MEL-28 melanoma, 1980 nM. Besides, the figures for the GI50 in the assay with SK-MEL-2 melanoma, with HT29 colon and in the assay with M14 melanoma were 3190 nM, 2640 nM and 2100 nM, respectively. Also, the TGI in the assay on HOP-92 NSCLC amounted to 7.94 µM; in the assay with MOLT-4 leukemia it was 6.46 µM; in the assay with CAKI-1 renal, 14.7 µM; with UO-31 renal, 3.29 µM; in the assay on IGROV1 ovarian, 13.9 µM; with SK-MEL-28 melanoma, 5.2 µM. Further, the TGI in the assay on SK-MEL-2 melanoma amounted to 11.5 µM; in the assay on HT29 colon, 6.06 µM; in the assay with M14 melanoma, 6.07 µM.

One may read the GI50 as the concentration at which growth is held to half of that of the control. One may read the TGI as the concentration giving total growth inhibition. A lower TGI goes with more potent growth arrest.
